ChEMBL document CHEMBL4813981, “Synthesis and in vitro antibacterial activity of new aminothiazole-oximepiperidone cephalosporins” (2021)
≈ marks a conversion by molar mass, not a printed value.

Tests used:
[1] = system: Escherichia coli; experiment: Antibacterial activity against Escherichia coli 15-4 overexpressing extended spectrum beta-lactamases assessed as reduction in bacterial growth; format: functional
[2] = system: Klebsiella pneumoniae; experiment: Antibacterial activity against Multidrug resistant Klebsiella pneumoniae KR 15-2 assessed as reduction in bacterial growth in the presence of Avibactam; format: functional
[3] = system: Enterobacter cloacae; experiment: Bactericidal activity against Enterobacter cloacae 17-10 assessed as reduction in bacterial growth in the presence of avibactam; format: functional
[4] = system: Klebsiella pneumoniae; experiment: Antibacterial activity against Carbapenem- resistant Klebsiella pneumoniae KR 15-10 assessed as reduction in bacterial growth in the presence of Avibactam; format: functional
[5] = system: Escherichia coli; experiment: Bactericidal activity against ESBLs positive carbapenem-sensitive Escherichia coli 17-10 assessed as reduction in bacterial growth in the presence of avibactam; format: functional
[6] = system: Klebsiella pneumoniae; experiment: Bactericidal activity against Carbapenem- resistant Klebsiella pneumoniae KR 15-6 assessed as reduction in bacterial growth; format: functional
[7] = system: Acinetobacter baumannii; experiment: Antibacterial activity against Carbapenem- resistant Acinetobacter baumannii 17-6 assessed as reduction in bacterial growth in the presence of Avibactam; format: functional
[8] = system: Escherichia coli; experiment: Bactericidal activity against ESBLs positive Carbapenem-sensitive Escherichia coli 17-3 assessed as reduction in bacterial growth; format: functional
[9] = system: Acinetobacter baumannii; experiment: Bactericidal activity against Acinetobacter baumannii NCTC 13304 assessed as reduction in bacterial growth; format: functional
[10] = system: Pseudomonas aeruginosa; experiment: Bactericidal activity against carbapenem-sensitive Pseudomonas aeruginosa 17-7 assessed as reduction in bacterial growth in the presence of avibactam; format: functional
[11] = system: Klebsiella pneumoniae; experiment: Antibacterial activity against Carbapenem- resistant Klebsiella pneumoniae KR 15-12 assessed as reduction in bacterial growth in the presence of Avibactam; format: functional
[12] = system: Pseudomonas aeruginosa; experiment: Antibacterial activity against Carbapenem- sensitive Pseudomonas aeruginosa 17-11 assessed as reduction in bacterial growth in the presence of Avibactam; format: functional
[13] = system: Klebsiella pneumoniae; experiment: Antibacterial activity against ESBLs positive Carbapenem-sensitive Klebsiella pneumoniae 17-6 assessed as reduction in bacterial growth
[14] = system: Klebsiella pneumoniae; experiment: Antibacterial activity against Klebsiella pneumoniae ATCC 700603 assessed as reduction in bacterial growth in the presence of Avibactam; format: functional
[15] = system: Escherichia coli; experiment: Antibacterial activity against ESBLs positive Carbapenem-sensitive Escherichia coli 17-22 assessed as reduction in bacterial growth in the presence of Avibactam; format: functional
[16] = system: Acinetobacter baumannii; experiment: Antibacterial activity against Carbapenem- resistant Acinetobacter baumannii 17-5 assessed as reduction in bacterial growth
[17] = system: Acinetobacter baumannii; experiment: Bactericidal activity against Carbapenem- resistant Acinetobacter baumannii 17-5 assessed as reduction in bacterial growth in the presence of avibactam; format: functional
[18] = system: Pseudomonas aeruginosa; experiment: Bactericidal activity against Carbapenem- resistant Pseudomonas aeruginosa 17-5 assessed as reduction in bacterial growth in the presence of avibactam; format: functional
[19] = system: Klebsiella pneumoniae; experiment: Antibacterial activity against Carbapenem- resistant Klebsiella pneumoniae KR 15-11 assessed as reduction in bacterial growth in the presence of Avibactam; format: functional
[20] = system: Klebsiella pneumoniae; experiment: Bactericidal activity against ESBLs positive Carbapenem-sensitive Klebsiella pneumoniae 17-2 assessed as reduction in bacterial growth in the presence of avibactam; format: functional
[21] = system: Pseudomonas aeruginosa; experiment: Antibacterial activity against Carbapenem- resistant Pseudomonas aeruginosa 17-5 assessed as reduction in bacterial growth in the presence of Avibactam; format: functional
[22] = system: Pseudomonas aeruginosa; experiment: Antibacterial activity against Carbapenem- sensitive Pseudomonas aeruginosa 17-9 assessed as reduction in bacterial growth in the presence of Avibactam; format: functional
[23] = system: Acinetobacter baumannii; experiment: Antibacterial activity against Multidrug resistant Acinetobacter baumannii AR 15-4 assessed as reduction in bacterial growth in the presence of Avibactam; format: functional
[24] = system: Klebsiella pneumoniae; experiment: Antibacterial activity against ESBLs negative Carbapenem-sensitive Klebsiella pneumoniae 17-19 assessed as reduction in bacterial growth; format: functional
[25] = system: Klebsiella pneumoniae; experiment: Bactericidal activity against Carbapenem- resistant Klebsiella pneumoniae KR 15-4 assessed as reduction in bacterial growth in the presence of avibactam; format: functional
[26] = system: Escherichia coli; experiment: Antibacterial activity against Escherichia coli ATCC 25922 assessed as reduction in bacterial growth in the presence of Avibactam; format: functional
[27] = system: Klebsiella aerogenes; experiment: Bactericidal activity against Enterobacter aerogenes 17-1 assessed as reduction in bacterial growth; format: functional
[28] = system: Escherichia coli; experiment: Bactericidal activity against Escherichia coli ATCC 25922 assessed as reduction in bacterial growth; format: functional
[29] = system: Acinetobacter baumannii; experiment: Antibacterial activity against Multidrug resistant Acinetobacter baumannii AR 15-2 assessed as reduction in bacterial growth; format: functional
[30] = system: Klebsiella pneumoniae; experiment: Antibacterial activity against ESBLs negative Carbapenem-sensitive Klebsiella pneumoniae 17-20 assessed as reduction in bacterial growth in the presence of Avibactam; format: functional
[31] = system: Escherichia coli; experiment: Antibacterial activity against ESBLs negative Carbapenem-sensitive Escherichia coli 17-20 assessed as reduction in bacterial growth; format: functional
[32] = system: Escherichia coli; experiment: Antibacterial activity against Escherichia coli 15-5 overexpressing extended spectrum beta-lactamases assessed as reduction in bacterial growth; format: functional
[33] = system: Acinetobacter baumannii; experiment: Bactericidal activity against Acinetobacter baumannii NCTC 13304 assessed as reduction in bacterial growth in the presence of avibactam; format: functional
[34] = system: Acinetobacter baumannii; experiment: Antibacterial activity against Carbapenem- resistant Acinetobacter baumannii 17-13 assessed as reduction in bacterial growth in the presence of Avibactam; format: functional
[35] = system: Klebsiella pneumoniae; experiment: Antibacterial activity against ESBLs positive Carbapenem-sensitive Klebsiella pneumoniae 17-4 assessed as reduction in bacterial growth in the presence of Avibactam; format: functional
[36] = system: Acinetobacter baumannii; experiment: Antibacterial activity against Carbapenem- resistant Acinetobacter baumannii 17-11 assessed as reduction in bacterial growth in the presence of Avibactam; format: functional
[37] = system: Klebsiella pneumoniae; experiment: Antibacterial activity against Multidrug resistant Klebsiella pneumoniae KR 15-2 assessed as reduction in bacterial growth; format: functional
[38] = system: Pseudomonas aeruginosa; experiment: Bactericidal activity against carbapenem-sensitive Pseudomonas aeruginosa 17-10 assessed as reduction in bacterial growth in the presence of avibactam; format: functional
[39] = system: Pseudomonas aeruginosa; experiment: Antibacterial activity against Carbapenem- resistant Pseudomonas aeruginosa 17-1 assessed as reduction in bacterial growth in the presence of Avibactam; format: functional
[40] = system: Pseudomonas aeruginosa; experiment: Antibacterial activity against Carbapenem- sensitive Pseudomonas aeruginosa 17-29 assessed as reduction in bacterial growth in the presence of Avibactam; format: functional
[41] = system: Klebsiella aerogenes; experiment: Antibacterial activity against Enterobacter aerogenes 17-2 assessed as reduction in bacterial growth in the presence of Avibactam; format: functional
[42] = system: Acinetobacter baumannii; experiment: Antibacterial activity against Carbapenem- resistant Acinetobacter baumannii 17-5 assessed as reduction in bacterial growth in the presence of Avibactam; format: functional
[43] = system: Klebsiella pneumoniae; experiment: Bactericidal activity against Klebsiella pneumoniae ATCC BAA-1705 assessed as reduction in bacterial growth in the presence of avibactam; format: functional
[44] = system: Enterobacter cloacae; experiment: Bactericidal activity against Enterobacter cloacae 17-9 assessed as reduction in bacterial growth in the presence of avibactam; format: functional
[45] = system: Acinetobacter baumannii; experiment: Antibacterial activity against Carbapenem- resistant Acinetobacter baumannii 17-2 assessed as reduction in bacterial growth in the presence of Avibactam; format: functional
[46] = system: Pseudomonas aeruginosa; experiment: Bactericidal activity against carbapenem-sensitive Pseudomonas aeruginosa 17-29 assessed as reduction in bacterial growth; format: functional
[47] = system: Klebsiella aerogenes; experiment: Bactericidal activity against Enterobacter aerogenes 17-4 assessed as reduction in bacterial growth in the presence of avibactam; format: functional
[48] = system: Klebsiella pneumoniae; experiment: Antibacterial activity against ESBLs positive Carbapenem-sensitive Klebsiella pneumoniae 17-14 assessed as reduction in bacterial growth in the presence of Avibactam; format: functional

Nc1nc(/C(=N/OCc2cc(=O)c(O)cn2O)C(=O)N[C@@H]2C(=O)N3C(C(=O)O)=CCS[C@H]23)cs1
MIC [1]: > 64 µg/mL
MIC [2]: 1 µg/mL
MBC [3]: 1 µg/mL
MIC [4]: 1 µg/mL
MBC [5]: 0.5 µg/mL
MBC [6]: 64 µg/mL (≈ 126 µM)
MIC [7]: 16 µg/mL
MBC [8]: 2 µg/mL (≈ 3.93 µM)
MBC [9]: > 64 µg/mL
MBC [10]: 0.25 µg/mL
MIC [11]: 4 µg/mL
MIC [12]: 2 µg/mL
MIC [13]: 0.5 µg/mL (≈ 0.983 µM)
MIC [14]: 64 µg/mL
MIC [15]: 0.5 µg/mL
MIC [16]: > 64 µg/mL
MBC [17]: 16 µg/mL
MBC [18]: 32 µg/mL
MIC [19]: 1 µg/mL
MBC [20]: 0.125 µg/mL
MIC [21]: 32 µg/mL
MIC [22]: 2 µg/mL
MIC [23]: 8 µg/mL
MIC [24]: ≤ 0.03 µg/mL
MBC [25]: 8 µg/mL
MIC [26]: 0.25 µg/mL
MBC [27]: 64 µg/mL (≈ 126 µM)
MBC [28]: > 8 µg/mL
MIC [29]: > 64 µg/mL
MIC [30]: 0.06 µg/mL
MIC [31]: 0.25 µg/mL (≈ 0.492 µM)
MIC [32]: > 64 µg/mL
MBC [33]: 16 µg/mL
MIC [34]: 2 µg/mL
MIC [35]: 2 µg/mL
MIC [36]: 8 µg/mL
MIC [37]: > 64 µg/mL
MBC [38]: 4 µg/mL
MIC [39]: 16 µg/mL
MIC [40]: 1 µg/mL
MIC [41]: 1 µg/mL
MIC [42]: 16 µg/mL
MBC [43]: 2 µg/mL
MBC [44]: 2 µg/mL
MIC [45]: 16 µg/mL
MBC [46]: 8 µg/mL (≈ 15.7 µM)
MBC [47]: 1 µg/mL
MIC [48]: 0.5 µg/mL

CC(C)(O/N=C(\C(=O)N[C@@H]1C(=O)N2C(C(=O)[O-])=C(C[n+]3ccccc3)CS[C@H]12)c1csc(N)n1)C(=O)O [CEFTAZIDIME]
MIC [1]: 16 µg/mL (≈ 29.3 µM)
MIC [2]: 2 µg/mL
MBC [3]: 1 µg/mL
MIC [4]: 2 µg/mL
MBC [5]: 1 µg/mL
MBC [6]: 64 µg/mL (≈ 117 µM)
MIC [7]: 8 µg/mL
MBC [8]: 2 µg/mL (≈ 3.66 µM)
MBC [9]: > 64 µg/mL
MBC [10]: 0.25 µg/mL
MIC [11]: 4 µg/mL
MIC [12]: 0.5 µg/mL
MIC [13]: 16 µg/mL (≈ 29.3 µM)
MIC [14]: 4 µg/mL
MIC [15]: 1 µg/mL
MIC [16]: > 64 µg/mL
MBC [17]: 16 µg/mL
MBC [18]: > 16 µg/mL
MIC [19]: 2 µg/mL
MBC [20]: 0.25 µg/mL
MIC [21]: 32 µg/mL
MIC [22]: 0.125 µg/mL
MIC [23]: 8 µg/mL
MBC [25]: 2 µg/mL
MIC [26]: 0.125 µg/mL
MBC [27]: 16 µg/mL (≈ 29.3 µM)
MBC [28]: 0.5 µg/mL (≈ 0.915 µM)
MIC [29]: > 64 µg/mL
MIC [30]: 0.125 µg/mL
MIC [32]: 32 µg/mL (≈ 58.5 µM)
MBC [33]: 8 µg/mL
MIC [34]: 2 µg/mL
MIC [35]: 4 µg/mL
MIC [36]: 8 µg/mL
MIC [37]: > 64 µg/mL
MBC [38]: 0.5 µg/mL
MIC [39]: 8 µg/mL
MIC [40]: 0.5 µg/mL
MIC [41]: 0.5 µg/mL
MIC [42]: 8 µg/mL
MBC [43]: 8 µg/mL
MBC [44]: > 2 µg/mL
MIC [45]: 8 µg/mL
MBC [46]: 4 µg/mL (≈ 7.32 µM)
MBC [47]: 0.5 µg/mL
MIC [48]: 2 µg/mL

C[C@@H](O)[C@H]1C(=O)N2C(C(=O)O)=C(S[C@@H]3CN[C@H](C(=O)N(C)C)C3)[C@H](C)[C@H]12 [MEROPENEM]
MIC [24]: < 0.03 µg/mL
MIC [31]: < 0.03 µg/mL
